Experimental data published in patent US20250176599A1, “FLAVOR COMPOSITION AND FOOD AND BEVERAGE” (TAKASAGO INTERNATIONAL CORPORATION, priority 2021, published 2025).

What was measured:
[1] = Sensory evaluation of aqueous solution III containing 1-octen-3-one 1 ppb: off-flavor intensity and masking component intensity; conditions: average panel score
Procedure, shortened: (§1)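 A sensory panel of eight scores each nootkatone-containing spiked water sample on two 0–4 scales. Off-flavor is relative, with the unmasked solution fixed at 4. Masker taste is absolute.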

[2] = Sensory evaluation of degradation component-added soymilk I ((E)-2-nonenal 5 ppb); conditions: average panel score
Procedure: (§2) To commercially available soymilk (“Delicious Unadjusted Soymilk” manufactured by Kikkoman Corporation), each degradation component was added to prepare degradation component-added soymilks at the concentrations listed in Table 23. To these degradation component-added soymilks, 1,4-dioxacycloheptadecan-5,17-dione was added at the concentrations listed in Table 23 to confirm the intensity of the off-flavor (masking effect) and the intensity of the masking components (impact on the flavor of the soymilk itself) for each sample.
(§3) Eight experienced panelists were selected to conduct a sensory evaluation similar to that of Example 1. […]

[3] = Sensory evaluation of aqueous solution I containing (E)-2-nonenal 1 ppb: off-flavor intensity and masking component intensity; conditions: average panel score
Procedure, shortened: as §1

[4] = Overall conclusion of the sensory evaluation across soymilks I and II
Procedure: as §2
Eight experienced panelists were selected to conduct a sensory evaluation similar to that of Example 1.
The same method as in Example 20 was used to confirm the intensity of the off-flavor (masking effect) derived from unsaturated fatty acids by α-methyl ionone and the intensity of the masking components (impact on the flavor of the soymilk itself).
The same method as in Example 20 was used to confirm the intensity of the off-flavor (masking effect) derived from unsaturated fatty acids by menthyl 3-hydroxybutyrate and the intensity of the masking components (impact on the flavor of the soymilk itself).

[5] = Overall conclusion of the sensory evaluation across aqueous solutions I to VI
Procedure, shortened: as §1

[6] = Sensory evaluation of degradation component-added soymilk II (1-octen-3-ol 500 ppb); conditions: average panel score
Procedure: as §2, §3

[7] = Sensory evaluation of aqueous solution V containing 1-octen-3-ol 10 ppb: off-flavor intensity and masking component intensity; conditions: average panel score
Procedure, shortened: as §1

[8] = Sensory evaluation of aqueous solution IV containing 1,5-octadien-3-one 100 ppt: off-flavor intensity and masking component intensity; conditions: aqueous solution IV, average panel score
Procedure, shortened: as §1

[9] = Sensory evaluation of aqueous solution II containing (E)-2-octenal 10 ppb: off-flavor intensity and masking component intensity; conditions: average panel score
Procedure, shortened: as §1

[10] = Sensory evaluation of aqueous solution VI containing 1,5-octadien-3-ol 10 ppb: off-flavor intensity and masking component intensity; conditions: aqueous solution VI, average panel score
Procedure, shortened: as §1

Compound: CC(O)CC(=O)OC1CC(C)CCC1C(C)C (stereo not drawn) [menthyl 3-hydroxybutyrate]
- Masking Component Intensity ([1]; 1 ppb added): 0.6
- Off-Flavor Intensity ([1]; 1 ppb added): 3.4
- Masking Component Intensity ([1]; 1 ppm added): 1.8
- Off-Flavor Intensity ([1]; 1 ppm added): 2.4
- Masking Component Intensity ([1]; 10 ppb added): 1.0
- Off-Flavor Intensity ([1]; 10 ppb added): 2.9
- Masking Component Intensity ([1]; 10 ppm added): 2.6
- Off-Flavor Intensity ([1]; 10 ppm added): 2.0
- Masking Component Intensity ([1]; 10 ppt added): 0.3
- Off-Flavor Intensity ([1]; 10 ppt added): 3.6
- Masking Component Intensity ([1]; 50 ppm added): 3.5
- Off-Flavor Intensity ([1]; 50 ppm added): 1.8
- Masking Component Intensity ([1]; 100 ppb added): 1.5
- Off-Flavor Intensity ([1]; 100 ppb added): 2.9
- Masking Component Intensity ([1]; 100 ppt added): 0.3
- Off-Flavor Intensity ([1]; 100 ppt added): 3.6
- Masking Component Intensity ([2]; 1 ppm added): 0.4
- Off-Flavor Intensity ([2]; 1 ppm added): 2.4
- Masking Component Intensity ([2]; 10 ppm added): 1.1
- Off-Flavor Intensity ([2]; 10 ppm added): 1.9
- Masking Component Intensity ([2]; 50 ppm added): 2.3
- Off-Flavor Intensity ([2]; 50 ppm added): 1.5
- Masking Component Intensity ([2]; 100 ppb added): 0.1
- Off-Flavor Intensity ([2]; 100 ppb added): 2.8
- Masking Component Intensity ([2]; 100 ppm added): 3.1
- Off-Flavor Intensity ([2]; 100 ppm added): 1.3
- Masking Component Intensity ([3]; 1 ppb added): 0.6
- Off-Flavor Intensity ([3]; 1 ppb added): 3.1
- Masking Component Intensity ([3]; 1 ppm added): 1.9
- Off-Flavor Intensity ([3]; 1 ppm added): 2.5
- Masking Component Intensity ([3]; 10 ppb added): 0.9
- Off-Flavor Intensity ([3]; 10 ppb added): 3.0
- Masking Component Intensity ([3]; 10 ppm added): 2.5
- Off-Flavor Intensity ([3]; 10 ppm added): 1.9
- Masking Component Intensity ([3]; 10 ppt added): 0.1
- Off-Flavor Intensity ([3]; 10 ppt added): 3.6
- Masking Component Intensity ([3]; 50 ppm added): 3.5
- Off-Flavor Intensity ([3]; 50 ppm added): 1.4
- Masking Component Intensity ([3]; 100 ppb added): 1.5
- Off-Flavor Intensity ([3]; 100 ppb added): 2.9
- Masking Component Intensity ([3]; 100 ppt added): 0.3
- Off-Flavor Intensity ([3]; 100 ppt added): 3.4
- concentration that masks the off-flavor and does not affect the flavor of the soymilk itself, lower limit [4]: ≥ 100 ppb
- concentration that masks the off-flavor and does not affect the flavor of the soymilk itself, upper limit [4]: ≤ 100 ppm
- concentration that masks the off-flavor and does not affect the flavor of the food and/or beverage itself, lower limit [5]: ≥ 10 ppt
- concentration that masks the off-flavor and does not affect the flavor of the food and/or beverage itself, upper limit [5]: ≤ 10 ppm
- Masking Component Intensity ([6]; 1 ppm added): 0.5
- Off-Flavor Intensity ([6]; 1 ppm added): 2.5
- Masking Component Intensity ([6]; 10 ppm added): 1.3
- Off-Flavor Intensity ([6]; 10 ppm added): 1.9
- Masking Component Intensity ([6]; 50 ppm added): 1.9
- Off-Flavor Intensity ([6]; 50 ppm added): 1.4
- Masking Component Intensity ([6]; 100 ppb added): 0.4
- Off-Flavor Intensity ([6]; 100 ppb added): 2.9
- Masking Component Intensity ([6]; 100 ppm added): 2.9
- Off-Flavor Intensity ([6]; 100 ppm added): 0.8
- Masking Component Intensity ([7]; 1 ppb added): 0.4
- Off-Flavor Intensity ([7]; 1 ppb added): 3.3
- Masking Component Intensity ([7]; 1 ppm added): 1.0
- Off-Flavor Intensity ([7]; 1 ppm added): 2.5
- Masking Component Intensity ([7]; 5 ppm added): 1.6
- Off-Flavor Intensity ([7]; 5 ppm added): 2.4
- Masking Component Intensity ([7]; 10 ppb added): 0.8
- Off-Flavor Intensity ([7]; 10 ppb added): 2.9
- Masking Component Intensity ([7]; 10 ppm added): 2.4
- Off-Flavor Intensity ([7]; 10 ppm added): 2.0
- Masking Component Intensity ([7]; 50 ppm added): 3.5
- Off-Flavor Intensity ([7]; 50 ppm added): 1.5
- Masking Component Intensity ([7]; 100 ppb added): 1.0
- Off-Flavor Intensity ([7]; 100 ppb added): 2.8
- Masking Component Intensity ([7]; 100 ppt added): 0.3
- Off-Flavor Intensity ([7]; 100 ppt added): 3.5
- Masking Component Intensity ([8]; 1 ppb added): 0.1
- Off-Flavor Intensity ([8]; 1 ppb added): 3.8
- Masking Component Intensity ([8]; 1 ppm added): 1.1
- Off-Flavor Intensity ([8]; 1 ppm added): 3.0
- Masking Component Intensity ([8]; 5 ppm added): 1.8
- Off-Flavor Intensity ([8]; 5 ppm added): 2.5
- Masking Component Intensity ([8]; 10 ppb added): 0.6
- Off-Flavor Intensity ([8]; 10 ppb added): 3.4
- Masking Component Intensity ([8]; 10 ppm added): 2.6
- Off-Flavor Intensity ([8]; 10 ppm added): 2.5
- Masking Component Intensity ([8]; 50 ppm added): 3.1
- Off-Flavor Intensity ([8]; 50 ppm added): 2.0
- Masking Component Intensity ([8]; 100 ppb added): 0.8
- Off-Flavor Intensity ([8]; 100 ppb added): 3.1
- Masking Component Intensity ([8]; 100 ppt added): 0.1
- Off-Flavor Intensity ([8]; 100 ppt added): 3.8
- Masking Component Intensity ([9]; 1 ppb added): 0.6
- Off-Flavor Intensity ([9]; 1 ppb added): 3.0
- Masking Component Intensity ([9]; 1 ppm added): 1.9
- Off-Flavor Intensity ([9]; 1 ppm added): 2.0
- Masking Component Intensity ([9]; 10 ppb added): 0.9
- Off-Flavor Intensity ([9]; 10 ppb added): 2.8
- Masking Component Intensity ([9]; 10 ppm added): 2.1
- Off-Flavor Intensity ([9]; 10 ppm added): 1.9
- Masking Component Intensity ([9]; 10 ppt added): 0.4
- Off-Flavor Intensity ([9]; 10 ppt added): 3.4
- Masking Component Intensity ([9]; 50 ppm added): 3.5
- Off-Flavor Intensity ([9]; 50 ppm added): 1.1
- Masking Component Intensity ([9]; 100 ppb added): 1.4
- Off-Flavor Intensity ([9]; 100 ppb added): 2.3
- Masking Component Intensity ([9]; 100 ppt added): 0.4
- Off-Flavor Intensity ([9]; 100 ppt added): 3.4
- Masking Component Intensity ([10]; 1 ppb added): 0.3
- Off-Flavor Intensity ([10]; 1 ppb added): 2.9
- Masking Component Intensity ([10]; 1 ppm added): 1.4
- Off-Flavor Intensity ([10]; 1 ppm added): 2.1
- Masking Component Intensity ([10]; 5 ppm added): 1.8
- Off-Flavor Intensity ([10]; 5 ppm added): 1.8
- Masking Component Intensity ([10]; 10 ppb added): 0.6
- Off-Flavor Intensity ([10]; 10 ppb added): 2.9
- Masking Component Intensity ([10]; 10 ppm added): 2.5
- Off-Flavor Intensity ([10]; 10 ppm added): 1.6
- Masking Component Intensity ([10]; 50 ppm added): 3.6
- Off-Flavor Intensity ([10]; 50 ppm added): 1.3
- Masking Component Intensity ([10]; 100 ppb added): 0.9
- Off-Flavor Intensity ([10]; 100 ppb added): 2.5
- Masking Component Intensity ([10]; 100 ppt added): 0.1
- Off-Flavor Intensity ([10]; 100 ppt added): 3.0
